Literature values in patent US20120237901A1, “Denture Adhesive Remover for Intraoral and Extraoral Use” (priority 2011, published 2012).

Assays:
bacteria = settings: 5% solution of acetic acid in water; reportedly
mold = settings: 5% solution of acetic acid in water; reportedly

CC(=O)O [acetic acid]
effective against bacteria (bacteria): 99.9% | effective against mold (mold): 90%
